Test results published in patent publication US20150105252A1, “SUBSTITUTED PYRAZOLES AS HERBICIDES” (E I DU PONT DE NEMOURS AND COMPANY, priority 2013, published 2015).

What was measured:
[1] = system: foxtail, giant; assay: Test A preemergence; type: in vivo, Setaria faberii; settings: preemergence; for Foxtail, Giant plant response rating (0 to 100 scale): 125 g ai/ha, visual injury approx. 10 days after treatment; for Foxtail, Giant plant response rating: 500 g ai/ha, visual injury after approx. 10 days, 0 to 100 scale (0 no effect, 100 complete control)
Outline: (§1)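 After sowing in a sand–loam mix, pots received compound preemergence by directed soil spray, or postemergence once plants reached the one- to two-leaf stage (2–10 cm). Formulation contained surfactant in a non-phytotoxic solvent. Injury was scored visually after ~10 greenhouse days, 0–100 scale.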

[2] = system: wheat; assay: Test A preemergence; type: in vivo, Triticum aestivum; settings: preemergence; for Wheat plant response rating (0 to 100 scale): 125 g ai/ha, visual injury approx. 10 days after treatment; for Wheat plant response rating: 500 g ai/ha, visual injury after approx. 10 days, 0 to 100 scale (0 no effect, 100 complete control)
Outline: as §1

[3] = system: foxtail, giant; assay: Test A postemergence; type: in vivo, Setaria faberii
Outline: as §1

[4] = system: morningglory; assay: Test A postemergence; type: in vivo, Ipomoea spp.
Outline: as §1

[5] = system: corn; assay: Test A postemergence; type: in vivo, Zea mays
Outline: as §1

[6] = system: sedge, umbrella; assay: Test B flood; type: in vivo, Cyperus difformis; settings: 250 g ai/ha, visual rating on 0 to 100 scale (0 no effect, 100 complete control), 13 to 15 days
Outline: (§2)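 Plants were grown to the 2-leaf stage, then pots were flooded to 3 cm above the soil and compounds were applied directly into the paddy water. Water depth was held for the whole test; after 13 to 15 days in a greenhouse, injury was visually rated against untreated controls (0 = no effect, 100 = complete control).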

[7] = system: ducksalad; assay: Test B flood; type: in vivo, Heteranthera limosa; settings: 250 g ai/ha, visual rating on 0 to 100 scale (0 no effect, 100 complete control), 13 to 15 days
Outline: as §2

[8] = system: ryegrass, Italian; assay: Test C preemergence; type: in vivo, Lolium multiflorum; settings: preemergence; for Plant response rating, Ryegrass, Italian: 125 g ai/ha, scale 0 to 100, 0 = no effect, 100 = complete control
Outline: (§3)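 Seeds sown in loam–sand blend and treated preemergence with test chemicals in non-phytotoxic solvent with surfactant; postemergence plants in peat-based medium, treated at 2–18 cm (1- to 4-leaf stage). Greenhouse 13 to 15 days, then visual rating versus controls, 0 (no effect) to 100 (complete control).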

[9] = system: galium; assay: Test C preemergence; type: in vivo, Galium aparine; settings: preemergence; for Plant response rating, Galium: 125 g ai/ha, scale 0 to 100, 0 = no effect, 100 = complete control
Outline: as §3

[10] = system: johnsongrass; assay: Test C preemergence; type: in vivo, Sorghum halepense; settings: preemergence; for Plant response rating, Johnsongrass: 125 g ai/ha, scale 0 to 100, 0 = no effect, 100 = complete control
Outline: as §3

[11] = system: nutsedge, yellow; assay: Test C preemergence; type: in vivo, Cyperus esculentus; settings: preemergence; for Plant response rating, Nutsedge, Yellow: 125 g ai/ha, scale 0 to 100, 0 = no effect, 100 = complete control
Outline: as §3

[12] = system: ragweed; assay: Test C preemergence; type: in vivo, Ambrosia elation; settings: preemergence; for Plant response rating, Ragweed: 125 g ai/ha, scale 0 to 100, 0 = no effect, 100 = complete control
Outline: as §3

[13] = system: soybean; assay: Test C preemergence; type: in vivo, Glycine max; settings: preemergence; for Plant response rating, Soybean: 125 g ai/ha, scale 0 to 100, 0 = no effect, 100 = complete control
Outline: as §3

[14] = system: barnyardgrass; assay: Test C preemergence; type: in vivo, Echinochloa crus-galli; settings: preemergence; for Plant response rating, Barnyardgrass: 125 g ai/ha, scale 0 to 100, 0 = no effect, 100 = complete control
Outline: as §3

[15] = Postemergence, 500 g ai/ha, 0 to 100 scale (0 no effect, 100 complete control)
[16] = postemergence, 125 g ai/ha, about 10 days, visual rating on 0 to 100 scale (0 no effect, 100 complete control)
[17] = 31 g ai/ha, visual rating, scale 0 to 100 (0 no effect, 100 complete control), 13 to 15 days
[18] = 62 g ai/ha, scale 0 to 100 (0 no effect, 100 complete control), 13 to 15 days
[19] = 250 g ai/ha, scale 0 to 100, 0 is no effect, 100 is complete control
[20] = Postemergence, 125 g ai/ha, 0 to 100 scale, 0 no effect, 100 complete control

Row | SMILES | Foxtail, Giant plant response rating (0 to 100 scale) [1] | Foxtail, Giant plant response rating [1] | Wheat plant response rating (0 to 100 scale) [2] | Wheat plant response rating [2] | Foxtail, Giant plant response rating [3, 15] | Foxtail, Giant plant response rating [3, 16] | Morningglory plant response rating [4, 15] | Corn plant response rating [5, 15] | Corn plant response rating [5, 16] | Plant response rating, Sedge, Umbrella [6] | Plant response rating, Ducksalad [7] | Ryegrass, Italian plant response rating [8, 17] | Ryegrass, Italian plant response rating [8, 18] | Plant response rating, Ryegrass, Italian ([8]; 13 to 15 days) | Ryegrass, Italian plant response rating [8, 19] | Galium plant response rating [9, 17] | Galium plant response rating [9, 18] | Plant response rating, Galium ([9]; 13 to 15 days) | Galium plant response rating [9, 19] | Johnsongrass plant response rating [10, 17] | also measured
1 | CCNC(=O)c1cc(CCCl)n(Cc2ccnc(C(F)(F)F)c2)n1 [Compound 179] | 100 | 100 | 10 | 100 | 90 | 90 | 100 | 90 | 50 | 80 | 100 | 5 | 80 | 90 | 90 | 98 | 100 | 100 | 100 | 10 | Morningglory plant response rating [4, 16]: 60; Johnsongrass plant response rating [10, 18]: 10; Plant response rating, Johnsongrass ([10]; 13 to 15 days): 75; Johnsongrass plant response rating [10, 19]: 98; Nutsedge, Yellow plant response rating [11, 17]: 10; Nutsedge, Yellow plant response rating [11, 18]: 15; Plant response rating, Nutsedge, Yellow ([11]; 13 to 15 days): 75; Nutsedge, Yellow plant response rating [11, 19]: 85; Ragweed plant response rating [12, 17]: 90; Ragweed plant response rating [12, 18]: 98; Plant response rating, Ragweed ([12]; 13 to 15 days): 98; Ragweed plant response rating [12, 19]: 98; Soybean plant response rating [13, 17]: 35; Soybean plant response rating [13, 18]: 65; Plant response rating, Soybean ([13]; 13 to 15 days): 85; Soybean plant response rating [13, 19]: 98; Barnyardgrass plant response rating [14, 17]: 60; Barnyardgrass plant response rating [14, 18]: 98; Plant response rating, Barnyardgrass ([14]; 13 to 15 days): 100; Barnyardgrass plant response rating [14, 19]: 100
2 | CCCc1cc(C(=O)NOCC)nn1Cc1ccnc(C(F)(F)F)c1 [Compound 185] | 100 | 100 | 70 | 90 | 90 | 80 | 90 | 90 | 0 | 80 | 50 | 0 | 30 | 90 | 90 | 80 | 100 | 95 | 100 | 5 | Morningglory plant response rating [4, 20]: 20; Johnsongrass plant response rating [10, 18]: 10; Plant response rating, Johnsongrass ([10]; 13 to 15 days): 20; Johnsongrass plant response rating [10, 19]: 60; Nutsedge, Yellow plant response rating [11, 17]: 5; Nutsedge, Yellow plant response rating [11, 18]: 40; Plant response rating, Nutsedge, Yellow ([11]; 13 to 15 days): 75; Nutsedge, Yellow plant response rating [11, 19]: 75; Ragweed plant response rating [12, 17]: 5; Ragweed plant response rating [12, 18]: 75; Plant response rating, Ragweed ([12]; 13 to 15 days): 95; Ragweed plant response rating [12, 19]: 100; Soybean plant response rating [13, 17]: 5; Soybean plant response rating [13, 18]: 5; Plant response rating, Soybean ([13]; 13 to 15 days): 25; Soybean plant response rating [13, 19]: 65; Barnyardgrass plant response rating [14, 17]: 55; Barnyardgrass plant response rating [14, 18]: 75; Plant response rating, Barnyardgrass ([14]; 13 to 15 days): 98; Barnyardgrass plant response rating [14, 19]: 100
3 | CCOc1cc(C(=O)NC(C)C)nn1Cc1ccnc(C(F)(F)F)c1 [Compound 188] | 100 | 100 | 100 | 100 | 90 | 90 | 100 | 100 | 90 | 90 | 90 | 70 | 90 | 90 | 90 | 98 | 100 | 100 | 100 | 80 | Morningglory plant response rating [4, 20]: 70; Johnsongrass plant response rating [10, 18]: 98; Plant response rating, Johnsongrass ([10]; 13 to 15 days): 100; Johnsongrass plant response rating [10, 19]: 100; Nutsedge, Yellow plant response rating [11, 17]: 30; Nutsedge, Yellow plant response rating [11, 18]: 65; Plant response rating, Nutsedge, Yellow ([11]; 13 to 15 days): 95; Nutsedge, Yellow plant response rating [11, 19]: 98; Ragweed plant response rating [12, 17]: 75; Ragweed plant response rating [12, 18]: 95; Plant response rating, Ragweed ([12]; 13 to 15 days): 100; Ragweed plant response rating [12, 19]: 98; Soybean plant response rating [13, 17]: 90; Soybean plant response rating [13, 18]: 90; Plant response rating, Soybean ([13]; 13 to 15 days): 95; Soybean plant response rating [13, 19]: 98; Barnyardgrass plant response rating [14, 17]: 100; Barnyardgrass plant response rating [14, 18]: 100; Plant response rating, Barnyardgrass ([14]; 13 to 15 days): 100; Barnyardgrass plant response rating [14, 19]: 100
4 | CCOc1cc(C(=O)NC2CC2)nn1Cc1ccnc(C(F)(F)F)c1 [Compound 189] | 100 | 100 | 90 | 100 | 90 | 90 | 100 | 100 | 80 | 90 | 85 | 40 | 90 | 90 | 90 | 90 | 95 | 100 | 100 | 65 | Morningglory plant response rating [4, 20]: 90; Johnsongrass plant response rating [10, 18]: 98; Plant response rating, Johnsongrass ([10]; 13 to 15 days): 100; Johnsongrass plant response rating [10, 19]: 100; Nutsedge, Yellow plant response rating [11, 17]: 25; Nutsedge, Yellow plant response rating [11, 18]: 80; Plant response rating, Nutsedge, Yellow ([11]; 13 to 15 days): 85; Nutsedge, Yellow plant response rating [11, 19]: 95; Ragweed plant response rating [12, 17]: 85; Ragweed plant response rating [12, 18]: 98; Plant response rating, Ragweed ([12]; 13 to 15 days): 100; Ragweed plant response rating [12, 19]: 98; Soybean plant response rating [13, 17]: 20; Soybean plant response rating [13, 18]: 95; Plant response rating, Soybean ([13]; 13 to 15 days): 98; Soybean plant response rating [13, 19]: 98; Barnyardgrass plant response rating [14, 17]: 95; Barnyardgrass plant response rating [14, 18]: 100; Plant response rating, Barnyardgrass ([14]; 13 to 15 days): 100; Barnyardgrass plant response rating [14, 19]: 100
